Data on two molecules can be found in patent US20220372008A1 (VIDYASIRIMEDHI INSTITUTE OF SCIENCE AND TECHNOLOGY, priority 2019, published 2022).

One data set addresses firefly luciferase (Photinus pyralis, UniProt P08659).
Data set [1] is classed as physicochemical. How it is done:
The term “thermostable dehalogenase” used herein refers to the dehalogenase or HadA, which is reengineered or modified, particularly modified on the surface of a wild-type dehalogenase or HadA. The reengineered or modified dehalogenase or HadA, which is called a thermostable HadA or HadA G513T, has an improvement on a temperature stability. The catalytic efficiency of the thermostable HadA or HadA G513T is in a broader range of temperature from 25-50° C. Further, the wild-type dehalogenase or HadA is a dechlorinating monooxygenase that can catalyze the elimination of nitro- and halides (F, Cl, Br, I) group from nitro- and halogenated phenols substrate. The wild type HadA can catalyze the reaction at 25° C. for 24 h. Whereas the reaction at higher temperature (>30° C.), the half-life of wild type HadA is dramatically decrease for 20 min. In accordance with various embodiments, the present disclosure relates to luciferin derivatives and a method for synthesis of the luciferin derivatives.
The thermostable dehalogenase is a modified HadA, particularly HadA G513T (Thermostable dehalogenase; HadA G513T), containing an amino acid sequence, which is set forth in SEQ ID NO.1 as shown in FIG. 8. The thermostable dehalogenase or HadA G513T is able to catalyze in a range of temperature from 25-50° C. and its half-life at 50° C. is 200 min. However, […]

Sequence of firefly luciferase (P08659 whole entry): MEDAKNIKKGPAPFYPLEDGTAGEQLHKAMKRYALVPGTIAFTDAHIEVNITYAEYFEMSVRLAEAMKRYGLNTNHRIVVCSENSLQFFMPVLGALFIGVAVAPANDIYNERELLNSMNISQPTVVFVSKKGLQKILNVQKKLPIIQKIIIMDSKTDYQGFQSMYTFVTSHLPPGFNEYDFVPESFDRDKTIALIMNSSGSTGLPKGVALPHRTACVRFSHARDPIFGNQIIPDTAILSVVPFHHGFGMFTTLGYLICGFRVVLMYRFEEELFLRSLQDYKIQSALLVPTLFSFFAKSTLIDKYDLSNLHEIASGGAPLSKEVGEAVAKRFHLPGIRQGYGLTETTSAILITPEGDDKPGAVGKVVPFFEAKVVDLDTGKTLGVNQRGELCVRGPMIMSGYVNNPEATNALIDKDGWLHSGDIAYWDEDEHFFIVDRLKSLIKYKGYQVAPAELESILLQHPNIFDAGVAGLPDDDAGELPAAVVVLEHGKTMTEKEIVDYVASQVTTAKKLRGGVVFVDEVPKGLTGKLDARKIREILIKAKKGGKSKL
Protocol for firefly luciferase: The pure luciferin and the purified luciferin derivatives, which are derived from the synthesis and purification methods, reacts with the firefly luciferase, and then the emission wavelength is measured.
The reaction between the luciferin derivatives of the present disclosure and the firefly luciferase can emit the light.

7′-bromoluciferin: the “emitting wavelength as substrate for the firefly luciferase” value on firefly luciferase (spectrofluorometer under bioluminescent mode) stood at 604 nm. Further, the maximum emission wavelength at firefly luciferase (substrate for wild-type firefly luciferase, FIG. 5) is on record as 604 nm.

B1: HadA G513T: modified HadA, thermostable dehalogenase with amino acid sequence SEQ ID NO.1 (protein, listed as Escherichia coli)
chain: MIRTGTQYLESLNDGRNVWVGNEKIDNVATHPKTRDYAQRHADFYDLHHRPDLQDVMTYIDEGGQRRAMQWFGHRDKEQLRRKRKYHETVMREMAGASFPRTPDVNNYVLTTYIDDPAPWETQSIGDDGHIKAGKIVDFIRYAREHDLNCAPQFVDPQMDRSNPDAQERSPGLRVVEKNEKGIVVNGVKAIGTGVAFADWIHIGVFFRPGIPGDQVIFAATPVNTPGVTIVCRESLVKDDKVEHPLAAQGDELDGMTVFENVFIPWSHVFHIGNPNHAKLYPQRVFDWLHYHALIRQMVRAELVAGLAVLITEHIGTNKIPAVQTRVAKLIGFHQAMLAHLIASEELGFHTPGGHYKPNILIYDFGRALYLENFSQMIYELVDLSGRSALIFASEDQWNDDKLNGWFERMNNGPVGRPHDRVKIGRVIRDLFLTDWGSRLFVFENFNGTPLQGIRMLTMQRAEFSGSGPYGKLARQVCGIDSAVTDDTEYRKTADYAKALDAARHQEEVALATAMAI
Usually half-life stands for how long it takes for the measured level to halve. Low readings indicate rapid decline, high ones slow decline. In data set [1], B1 registered a half-life of 3.33 h.
